System: not listed separately
Test: Clinical antihypertensive action dissociated from diuresis
Type: in vivo, humans
Details: at the daily dose of b165
Procedure: Such dosage was preferably administered at hourly intervals over a period of from 4 to 8 hours to hypertensive patients.

| Compound | Diuretic response at the antihypertensive daily dose |
| --- | --- |
| amiloride-hydrochlorothiazide salt | without diuresis |

Same assay, conditions: dose of active ingredients per day

| Compound | Daily dose to achieve an antihypertensive effect |
| --- | --- |
| amiloride-hydrochlorothiazide salt | about 50 mg |

System: not given
Test: not given
Details: chlorothiazide being one; cited from earlier work

| Compound | Potency as diuretic and natriuretic agent relative to chlorothiazide |
| --- | --- |
| NS(=O)(=O)c1cc2c(cc1Cl)NC(CC1CCCC1)NS2(=O)=O (centres unmarked) [Cyclopenthiazide] | thousand times more potent |

Same assay, conditions: chlorothiazide being one; listed as cyclopenthiazide; cited from earlier work

| Compound | Potency as diuretic and natriuretic agent relative to chlorothiazide |
| --- | --- |
| NS(=O)(=O)c1cc2c(cc1Cl)NC(CC1CCCC1)NS2(=O)=O (centres unmarked) [Cyclopenthiazide] | a thousand |

Same assay, conditions: comparison with chlorothiazide having a value of 1; cited from earlier work

| Compound | Approx. Natriuretic Activity |
| --- | --- |
| NS(=O)(=O)c1cc2c(cc1C(F)(F)F)NC(Cc1ccccc1)NS2(=O)=O (centres unmarked) [Bendroflumethiazide] | 100 |
| NS(=O)(=O)c1cc2c(cc1Cl)N=C(CSCc1ccccc1)NS2(=O)=O [Benzthiazide] | 10 |
| NS(=O)(=O)c1cc2c(cc1Cl)NC(CC1CCCC1)NS2(=O)=O (centres unmarked) [Cyclopenthiazide] | 1000 |
| NS(=O)(=O)c1cc2c(cc1Cl)NC(C1CC3C=CC1C3)NS2(=O)=O (centres unmarked) [Cyclothiazide] | 500 |
| NS(=O)(=O)c1cc2c(cc1C(F)(F)F)N=CNS2(=O)=O [Flumethiazide] | 1 |
| NS(=O)(=O)c1cc2c(cc1Cl)NCNS2(=O)=O [Hydrochlorothiazide] | 10 |
| CN1C(CCl)Nc2cc(Cl)c(S(N)(=O)=O)cc2S1(=O)=O (centres unmarked) [Methyclothiazide] | 100 |
| NS(=O)(=O)c1cc2c(cc1Cl)NC(C(Cl)Cl)NS2(=O)=O (centres unmarked) [Trichlormethiazide] | 200 |

System: not given
Test: not given
Details: Example 1 table; cited from earlier work

| Compound | Range diuretic dose [mg] |
| --- | --- |
| NS(=O)(=O)c1cc2c(cc1C(F)(F)F)NC(Cc1ccccc1)NS2(=O)=O (centres unmarked) [Bendroflumethiazide] | 2 to 5 |
| NS(=O)(=O)c1cc2c(cc1Cl)N=C(CSCc1ccccc1)NS2(=O)=O [Benzthiazide] | 25 to 50 |
| NS(=O)(=O)c1cc2c(cc1Cl)NC(CC1CCCC1)NS2(=O)=O (centres unmarked) [Cyclopenthiazide] | 1 to 6 |
| NS(=O)(=O)c1cc2c(cc1Cl)NC(C1CC3C=CC1C3)NS2(=O)=O (centres unmarked) [Cyclothiazide] | 1 to 6 |
| NS(=O)(=O)c1cc2c(cc1C(F)(F)F)N=CNS2(=O)=O [Flumethiazide] | 50 to 1000 |
| NS(=O)(=O)c1cc2c(cc1Cl)NCNS2(=O)=O [Hydrochlorothiazide] | 25 to 100 |
| CN1C(CCl)Nc2cc(Cl)c(S(N)(=O)=O)cc2S1(=O)=O (centres unmarked) [Methyclothiazide] | 5 to 10 |
| NS(=O)(=O)c1cc2c(cc1Cl)NC(C(Cl)Cl)NS2(=O)=O (centres unmarked) [Trichlormethiazide] | 4 to 8 |

Same assay, conditions: average daily dose; cited from earlier work

| Compound | Daily Diuretic Dose (average minimum diuretic dose) [mg] |
| --- | --- |
| NS(=O)(=O)c1cc2c(cc1C(F)(F)F)NC(Cc1ccccc1)NS2(=O)=O (centres unmarked) [Bendroflumethiazide] | 20 |
| NS(=O)(=O)c1cc2c(cc1Cl)N=C(CSCc1ccccc1)NS2(=O)=O [Benzthiazide] | 200 |
| NS(=O)(=O)c1cc2c(cc1Cl)NC(CC1CCCC1)NS2(=O)=O (centres unmarked) [Cyclopenthiazide] | 2 |
| NS(=O)(=O)c1cc2c(cc1Cl)NC(C1CC3C=CC1C3)NS2(=O)=O (centres unmarked) [Cyclothiazide] | 2 |
| NS(=O)(=O)c1cc2c(cc1C(F)(F)F)N=CNS2(=O)=O [Flumethiazide] | 200 |
| NS(=O)(=O)c1cc2c(cc1Cl)NCNS2(=O)=O [Hydrochlorothiazide] | 200 |
| CN1C(CCl)Nc2cc(Cl)c(S(N)(=O)=O)cc2S1(=O)=O (centres unmarked) [Methyclothiazide] | 10 |
| NS(=O)(=O)c1cc2c(cc1Cl)NC(C(Cl)Cl)NS2(=O)=O (centres unmarked) [Trichlormethiazide] | 8 |

Same assay, conditions: average daily dose; listed as cyclopenthiazide; cited from earlier work

| Compound | Daily Diuretic Dose (average minimum diuretic dose) |
| --- | --- |
| NS(=O)(=O)c1cc2c(cc1Cl)NC(CC1CCCC1)NS2(=O)=O (centres unmarked) [Cyclopenthiazide] | about 2 mg |

Same assay, conditions: average daily dose; listed as cyclothiazide; cited from earlier work

| Compound | Daily Diuretic Dose (average minimum diuretic dose) |
| --- | --- |
| NS(=O)(=O)c1cc2c(cc1Cl)NC(C1CC3C=CC1C3)NS2(=O)=O (centres unmarked) [Cyclothiazide] | about 2 mg |

System: plasma proteins
Test: not given
Details: cited from earlier work

| Compound | Binding to plasma proteins |
| --- | --- |
| NS(=O)(=O)c1cc2c(cc1C(F)(F)F)NC(Cc1ccccc1)NS2(=O)=O (centres unmarked) [Bendroflumethiazide] | proportionately high binding to plasma proteins |
| NS(=O)(=O)c1cc2c(cc1Cl)NC(CC1CCCC1)NS2(=O)=O (centres unmarked) [Cyclopenthiazide] | proportionately high binding to plasma proteins |
| NS(=O)(=O)c1cc2c(cc1Cl)NC(C1CC3C=CC1C3)NS2(=O)=O (centres unmarked) [Cyclothiazide] | proportionately high binding to plasma proteins |
| CN1C(CCl)Nc2cc(Cl)c(S(N)(=O)=O)cc2S1(=O)=O (centres unmarked) [Methyclothiazide] | proportionately high binding to plasma proteins |
| CN1C(CSCC(F)(F)F)Nc2cc(Cl)c(S(N)(=O)=O)cc2S1(=O)=O (centres unmarked) [Polythiazide] | proportionately high binding to plasma proteins |
| NS(=O)(=O)c1cc2c(cc1Cl)NC(C(Cl)Cl)NS2(=O)=O (centres unmarked) [Trichlormethiazide] | proportionately high binding to plasma proteins |

System: not given
Test: not given
Details: in vivo; cited from earlier work

| Compound | Clinical alkalinization of urine |
| --- | --- |
| NS(=O)(=O)c1cc2c(cc1Cl)N=C(CSCc1ccccc1)NS2(=O)=O [Benzthiazide] | does not cause an appreciable clinical alkalinization of urine |

System: carbonic anhydrase
Test: not given
Details: cited from earlier work

| Compound | Carbonic anhydrase inhibition, in words |
| --- | --- |
| NS(=O)(=O)c1cc2c(cc1Cl)N=C(CSCc1ccccc1)NS2(=O)=O [Benzthiazide] | relatively potent carbonic anhydrase inhibitor |

— patent US4898729A, “Treatment of hypertension, compounds and compositions for antihypertension and diuresis” (priority 1983, dated 1990)
